Laboratory results taken from patent US20110224079A1, “SPIROHETEROCYCLIC N-OXYAMIDES AS PESTICIDES” (SYNGENTA CROP PROTECTION LLC, priority 2008, published 2011).

Key:
[1] = system: Plutella xylostella (diamond back moth); experiment: Example B5: activity against Plutella xylostella, artificial diet in microtiter plate (larvicide, preventive); assay type: in vivo; conditions: 120 h, L2 larvae, 5 days, read-out: activity (larval mortality, antifeedant, growth regulation)
Protocol: Activity Against Plutella xylostella (Diamond Back Moth)
(Larvicide, Feeding/Residual Contact Activity, Preventive)
24-well microtiter plate (MTP) with artificial diet is treated with test solutions by pipetting. After drying, the MTP's are infested with larvae (L2)(10-15 per well). After an incubation period of 5 days, samples are checked for larval mortality, antifeedant and growth regulation.

[2] = system: Bemisia tabaci (tobacco white fly); experiment: Example B7: activity against Bemisia tabaci, sprayed bean plants (larvicide, contact/feeding); assay type: in vivo; conditions: 504 h, bean plants with N-2 nymphs sprayed, three weeks, read-out: activity (efficacy, number of emerged adults)
Method in brief: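 After a 4-day egg-laying period and 7 further days, bean plants bearing hatched N-2 nymphs were sprayed with test solutions (2 replicates). Emerged adults were counted three weeks later; efficacy was derived by comparison with untreated samples.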

[3] = system: Aphis Craccivora (cowpea aphid); experiment: Example B11: translaminar activity against Aphis craccivora on French bean leaves; assay type: in vivo; conditions: 120 h, upper leaf side painted, aphids on lower side, 5 days
Protocol: Translaminar Activity Against Aphis Craccivora (Cowpea Aphid)
French bean leaves (Phaseolus vulgaris) are infested with about 20 mixed age individuals on the lower leaf side using clip cages. 1 day after the infestation, the upper side of the leaves is treated with the test solution by painting. 5 days later, samples are checked for mortality.

[4] = system: cowpea aphid (Aphis craccivora); experiment: Example B14: insecticide seed treatment of sugarbeet seeds, infestation with cowpea aphid; assay type: in vivo; conditions: 0.3 mg a.i./seed, infested after 14 days, counted 7 days later
Protocol: Insecticide Seed Treatment
Sugarbeet seeds are treated with test compounds at various rates (mg a.i./seed). The seeds are sown into pots filled with soil. After placing the seeds on the soil surface they are further covered with soil. Before and during the bioassays, the plants are grown under optimal greenhouse conditions. After 14 days, the plants are infested with cowpea aphid (Aphis craccivora) by placing one infested pea seedling containing approximately 150 aphids of a population of mixed developmental stages onto each plant. Seven days after infestation, the number of aphids is counted per plant. Each treatment group is replicated 10 times. Each replicate contains 1 plant.

[5] = system: Myzus persicae (green peach aphid); experiment: Example B17: activity against Myzus persicae on sprayed pepper plants (feeding/residual contact); assay type: in vivo; conditions: 144 h, infested pepper plants sprayed, 6 days
[6] = system: Myzus persicae (green peach aphid); experiment: Example B13: drench activity against Myzus persicae, pea seedlings in field soil; conditions: 168 h, read-out: drench activity (mortality)
[7] = system: Nilaparvata lugens (brown rice planthopper); experiment: Example B8: activity against Nilaparvata lugens, sprayed rice seedlings (larvicide, feeding/contact); conditions: in Oryza sativa, read-out: activity (mortality, growth regulation, effects on F1 generation)
[8] = system: Myzus persicae (green peach aphid); experiment: Example B2: activity against Myzus persicae, pea seedling roots in test solution (systemic/feeding, curative); conditions: 144 h, read-out: activity (mortality)
[9] = system: Myzus persicae (green peach aphid); experiment: Example B1: activity against Myzus persicae, sprayed sunflower leaf discs (feeding/residual contact, preventive); conditions: foliar, 144 h, read-out: activity (mortality)

## COCON1C(=O)C(c2cc(C)ccc2C)=C(O)C12CCN(OC)CC2 [P2.2, 3-(2,5-dimethyl-phenyl)-4-hydroxy-8-methoxy-1-methoxymethoxy-1,8-diaza-spiro[4.5]dec-3-en-2-one]
[1]
  mortality at 400 ppm: > 80%
[2]
  pest or weed control at 200 ppm: > 80%
[3]
  mortality at 400 ppm: > 80%
[4]
  efficacy in the reduction of aphids compared to the untreated control plants: 60%
[5]
  mortality at 200 ppm: ≥ 80%
[6]
  mortality at 25 ppm: > 80%
[7]
  mortality at 400 ppm: > 80%
[8]
  mortality at 400 ppm: > 80%
[9]
  mortality at 400 ppm: > 80%
